Source: US20060281071A1, “Stearoyl-CoA desaturase assay” (priority 2005, published 2006)

How the values were obtained:
[1] = target: T1, mSCD3 (Mus musculus, UniProt Q99PL7, V119A); test: Conversion of saturated fatty acids to Δ9 monounsaturated fatty acids in ole1 yeast L8-14C expressing mSCD3 (GLC); format: cell-based; design: Cloning of the full-length human and mouse SCD cDNAs: The full coding region of human SCDs; expressed in transfected cells; host or cells: Saccharomyces cerevisiae L8-14C (ole1 disruptant), vector p426GPD; settings: for conversion of exogenous saturated fatty acid to Δ9 monounsaturated fatty acid: exogenous fatty acid 0.2 mM, 1% tergitol NP-40, yeast cultured 2 days (FIG. 2)
T1 sequence (Q99PL7 1-359 V119A): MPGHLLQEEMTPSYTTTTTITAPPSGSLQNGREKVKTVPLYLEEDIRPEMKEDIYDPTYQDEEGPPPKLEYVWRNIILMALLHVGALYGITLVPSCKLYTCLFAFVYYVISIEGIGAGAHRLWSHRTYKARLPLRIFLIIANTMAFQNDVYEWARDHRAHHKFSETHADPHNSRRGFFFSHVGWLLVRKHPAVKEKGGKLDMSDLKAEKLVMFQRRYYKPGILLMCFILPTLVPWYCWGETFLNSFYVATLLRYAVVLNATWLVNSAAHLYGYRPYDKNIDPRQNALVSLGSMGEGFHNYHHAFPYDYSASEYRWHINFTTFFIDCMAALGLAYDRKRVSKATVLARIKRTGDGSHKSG

[2] = target: T1, mSCD3; test: Δ9-desaturase activity in microsomes of Hela cells over-expressing mSCD3; format: biochemical; design: Cloning of the full-length human and mouse SCD cDNAs: The full coding region of human SCDs; expressed in transfected cells; settings: Hela microsomes 100 μg, 14C-acyl-CoA, NADH (FIG. 3)

Structure (SMILES)	conversion of exogenous saturated fatty acid to Δ9 monounsaturated fatty acid [1]	also measured
CCCCCCCCCCCCC(=O)O [13:0, tridecanoic acid]	32%	–
CCCCCCCCCCCCCCCC(=O)SCCNC(=O)CCNC(=O)[C@H](O)C(C)(C)COP(=O)(O)OP(=O)(O)OC[C@H]1O[C@@H](n2cnc3c(N)ncnc32)[C@H](O)[C@@H]1OP(=O)(O)O [16:0-CoA, palmitoyl-CoA]	–	Δ9-desaturase activity towards 16:0-CoA relative to 18:0-CoA [2]: 16 fold
CCCCCCCCCCCCCCCCCCCC(=O)O [C20:0, eicosanoic acid]	None of Δ9-desaturase was able to utilize	–
CCCCCCCCCCCCCCCCC(=O)O [17:0, heptadecanoic acid]	undetectable	–
CCCCCCCCCCCCCCCC(=O)O [16:0]	–	% conversion of fatty acid to Δ9 monounsaturated fatty acid ([1]; endogenous fatty acid, L8-14C transformant, YPD lacking unsaturated fatty acids, 3 days): 49%
CCCCCCCCCCCCCC(=O)O [14:0, myristic acid]	more than 50%	–
